A short description of data set [1]: molar enthalpy of vaporization or sublimation. The conditions noted are these: 298.15 K; Liquid; Static calorimetry.
Data set [2] can be described thus: molar heat capacity at constant pressure. The conditions noted are these: 300.6 K; 101.33 kPa; Liquid; Drop calorimetry.

± gives the expanded uncertainty stated by the source.

Consider `CCCCn1ccnc1` [1-butylimidazole], for which the molar enthalpy in data set [1] amounted to 15.3 ± 0.153 kcal/mol.
On the same count and under the same terms, the figure for `CCn1ccnc1` [1-ethyl-1H-imidazole] is 13.8 ± 0.237 kcal/mol.
As for `CCCCCCCCn1ccnc1` [1-octylimidazole], in data set [1], the molar enthalpy stood at 19.4 ± 0.335 kcal/mol. For the same molecule, the “molar heat capacity at constant pressure” value in data set [2] was 382.21 ± 23 J/K/mol.
